This passage reports EC50, Emax and Selectivity results from patent EP4458820A1 (Shanghai Institute of Materia Medica, Chinese Academy of …, priority 2021, dated 2023).

One test addresses T1, THR-α (Homo sapiens, UniProt P10827).
T1 sequence (P10827 1-410 isoform P10827-2): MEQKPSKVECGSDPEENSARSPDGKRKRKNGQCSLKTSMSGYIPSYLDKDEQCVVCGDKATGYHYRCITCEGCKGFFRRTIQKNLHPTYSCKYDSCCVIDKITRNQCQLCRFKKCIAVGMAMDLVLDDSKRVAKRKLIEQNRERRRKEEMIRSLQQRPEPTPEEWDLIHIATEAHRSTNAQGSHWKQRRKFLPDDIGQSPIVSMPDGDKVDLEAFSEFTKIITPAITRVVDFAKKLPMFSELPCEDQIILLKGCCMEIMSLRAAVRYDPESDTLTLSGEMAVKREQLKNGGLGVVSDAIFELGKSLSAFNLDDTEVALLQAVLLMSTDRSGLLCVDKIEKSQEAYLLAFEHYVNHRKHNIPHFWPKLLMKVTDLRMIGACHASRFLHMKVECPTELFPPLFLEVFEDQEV
The test is described as follows: in vitro agonist activity at the molecular level (AlphaScreen detection), THR-α. It counts as biochemical. To be noted: in vitro molecular evaluation system; for Emax: read-out: THR-α Rel % Activity of T3.

Another test concerns the target T2, THR-β (Homo sapiens, UniProt P10828).
T2 construct: GST; made in house
T2 sequence (P10828 1-461): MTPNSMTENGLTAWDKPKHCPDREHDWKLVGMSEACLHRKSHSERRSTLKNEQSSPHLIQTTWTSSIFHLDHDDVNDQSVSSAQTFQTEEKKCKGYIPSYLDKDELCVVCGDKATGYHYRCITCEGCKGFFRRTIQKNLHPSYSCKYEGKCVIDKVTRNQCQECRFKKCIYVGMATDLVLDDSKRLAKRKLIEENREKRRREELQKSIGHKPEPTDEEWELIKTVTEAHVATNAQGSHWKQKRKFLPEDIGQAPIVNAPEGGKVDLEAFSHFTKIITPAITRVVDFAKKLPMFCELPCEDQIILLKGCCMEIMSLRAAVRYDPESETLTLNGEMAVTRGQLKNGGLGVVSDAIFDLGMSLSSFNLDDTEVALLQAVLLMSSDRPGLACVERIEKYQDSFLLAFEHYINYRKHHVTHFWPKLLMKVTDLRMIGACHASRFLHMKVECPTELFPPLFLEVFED
Description: in vitro THR β agonist activity at the molecular level (AlphaScreen detection). The class given is biochemical. Conditions: in vitro molecular evaluation system; for Selectivity: THR-β versus THR-α; for Emax: read-out: THR-β Rel % Activity of T3. As to the method:
At the molecular level, the binding ability of the compound to thyroid hormone receptor β (THR β) was measured by AlphaScreen detection. Firstly, recombinant GST-THR β fusion proteins were constructed, followed by compound-receptor binding reactions in 384-well plates.

The structures appear in SMILES notation. pEC50: −log10 of the molar value.

With `Cc1cc(-c2ccco2)nc2ccc(Oc3c(Cl)cc(-n4nc(C#N)c(=O)[nH]c4=O)cc3Cl)cc12` [Compound 15, 2-(3,5-Dichloro-4-((2-(furan-2-yl)-4-methylquinolin-6-yl)oxy)phenyl) -3,5-dioxo-2,3,4,5-tetrahydro-1,2,4-triazine-6-carbonitrile], on THR-α, the pEC50 is 6.55 and the Emax is 62.5%. Also, on THR-β, the pEC50 was 7.14, the Selectivity was determined as 3.9 and the Emax was 84.3%.

In the case of `Cc1cc(-c2ccoc2)nc2ccc(Oc3c(Cl)cc(-n4nc(C#N)c(=O)[nH]c4=O)cc3Cl)cc12` [Compound 17], on THR-α, the negative logarithm of the EC50 (pEC50) is 5.91 and the Emax worked out at 57.6%. Besides, at THR-β, the pEC50 was 6.53, the Selectivity is 4.2 and the Emax amounted to 73.7%.

In the case of `Cc1cc(-c2cccs2)nc2ccc(Oc3c(Cl)cc(-n4nc(C#N)c(=O)[nH]c4=O)cc3Cl)cc12` [Compound 19, 2-(3,5-Dichloro-4-((2-(thiophen-2-yl) -4-methylquinolin-6-yl)oxy)phenyl) -3,5-dioxo-2,3,4,5-tetrahydro-1,2,4-triazine-6-carbonitrile], the pEC50 on THR-α was below 4.30; on THR-β it was 6.42. Also, the Emax at THR-β worked out at 71.8%.

For the compound `Cc1cc(-c2ccc(F)cc2)nc2ccc(Oc3c(Cl)cc(-n4nc(N)c(=O)[nH]c4=O)cc3Cl)cc12` [Compound 60, 6-amino-2-(3,5-dichloro-4-((2-(4-fluorophenyl)-4-methylquinolin-6-yl)oxy)phenyl)-1,2,4-triazine-3,5(2H,4H)-dione], at THR-α, the negative logarithm of the EC50 (pEC50) is 7.24 and the Emax came to 62.7%. For the same compound, at THR-β, the pEC50 is 8.08, the Selectivity is on record as 6.89 and the Emax was 83%.

With `Nc1nn(-c2cc(Cl)c(Oc3ccc4nccc(Cl)c4c3)c(Cl)c2)c(=O)[nH]c1=O` [Compound 99, 6-amino-2-(3,5-dichloro-4((4-chloroquinolin-6-yl)oxy)phenyl)-1,2,4-triazine-3,5(2H,4H)-dione], at THR-α, the negative-log EC50 (pEC50) was 6.61 and the Emax is 67.5%. For the same compound, on THR-β, the pEC50 is 7.50, the Selectivity is 7.85 and the Emax was 76.3%.

`Cc1cc(C2CCCCC2)nc2ccc(Oc3c(Cl)cc(-n4nc(N)c(=O)[nH]c4=O)cc3Cl)cc12` [Compound 134, 6-amino-2-(3,5-dichloro-4-((2-cyclohexyl-4-methylquinolin-6-yl)oxy)phenyl)-1,2,4-triazine-3,5(2H,4H)-dione]: at THR-α, the pEC50 was 6.37 and the Emax stood at 38.4%. Besides, on THR-β, the pEC50 is 6.92, the Selectivity is on record as 4.2 and the Emax came out at 92.3%.
